The text below walks through data of publication PMC4147338, “Host defense peptides for treatment of colorectal carcinoma – a comparative in vitro and in vivo analysis” (Oncotarget, 2014).

The test system of data set [1] is HDP-responsive cell lines (e.g. HROC24). Nature of the data set: Western blot analysis of Bax and HSP90 expression. Particulars: normalized to β-actin, untreated =1. The format is cell-based, human. The method, then:
Figure 5 Apoptosis/necrosis assay and Western blot analysis (A, B) HROC18 and HROC24 cells were exposed to increasing HDP concentrations for a period of 24 hours. Tumor cells were stained with YO-PRO-1 for detecting early and late apoptotic tumor cells. Prior to flow cytometric analysis, PI was added to detect necrotic cells, as well. (A) Representative dot plots showing HDP-treated HROC24 cells at a concentration of 5 μM. Lower right quadrant: early apoptotic cells; upper right quadrant: late apoptotic cells; upper left quadrant: necrotic cells. (B) For cell death quantification, values of background cell death (=untreated controls) were subtracted from values of HDP-treated cells. […] (D, F) Quantitative analysis of BAX and HSP90 expression in HDP-treated cells was done as described in material & methods. Expression levels of untreated cells were set to be =1 and x-fold increases of HDP-exposed cells were calculated. […]
Cellular protein extracts were obtained from HDP-treated and control cells following incubation with lysis buffer (1 M Tris, pH 7.5, 5 M sodium chloride, 0.25 M ethylenediaminetetraacetic acid, 10% (v/v) triton-x 100, 4% (v:v) sodium azide, 0.1 M phenylmethane-sulfonylfluoride, protease inhibitor cocktail (Roche, Mannheim, Germany)) on ice for 30 min. […] Signal integrated intensities were quantified applying the Odyssey® software version 3.16. […]
(In general: In western blotting, separated proteins are transferred to a membrane and probed.)

The subject of another data set is HROC18 cells. Nature of the data set: Apoptosis/necrosis assay, YO-PRO-1/PI flow cytometry. In kind it is cell-based, human. Particulars: HROC18, 24h, background cell death subtracted. The procedure:
(§1) Figure 5 Apoptosis/necrosis assay and Western blot analysis (A, B) HROC18 and HROC24 cells were exposed to increasing HDP concentrations for a period of 24 hours. Tumor cells were stained with YO-PRO-1 for detecting early and late apoptotic tumor cells. Prior to flow cytometric analysis, PI was added to detect necrotic cells, as well. (A) Representative dot plots showing HDP-treated HROC24 cells at a concentration of 5 μM. Lower right quadrant: early apoptotic cells; upper right quadrant: late apoptotic cells; upper left quadrant: necrotic cells. (B) For cell death quantification, values of background cell death (=untreated controls) were subtracted from values of HDP-treated cells. Left panel: HROC24 cell; right panel: HROC18 cells. (C, E) Representative western blot results showing HDP-treated HROC24 cells (20 μg of total protein per lane). (D, F) Quantitative analysis of BAX and HSP90 expression in HDP-treated cells was done as described in material & methods. Expression levels of untreated cells were set to be =1 and x-fold increases of HDP-exposed cells were calculated. […] Values are given as mean ± SD.
(§2) Cell death was quantified by YO-PRO-1 (Invitrogen) and PI double staining. Selected tumor cells (HROC24 and HROC18, 1 × 10^4 cells/well) were seeded in 24-well plates and incubated overnight. Thereafter, peptides were added in increasing concentrations (ranging from 0.25 μM – 12.5 μM). Untreated cells served as living control. Following a 24-hour incubation period, supernatants were collected; cells were trypsinized and washed in PBS. Cells were stained with YO-PRO-1 (final concentration: 0.2 μM) for 20 min at room temperature. Prior to flow cytometric analysis, PI was added at a final concentration of 100 μg/ml. For cell death quantification, values of background cell death (=untreated controls) were subtracted from values of HDP-treated cells.
A general note: A flow cytometer gives signals particle by particle.

Data set [2] relates to whole blood cells of healthy donors. Kind of data set: Hemolysis assay, hemoglobin release. The format is cell-based, human. The settings on record: whole blood of healthy donors (n=6), 0.25-12.5 μM, 120 min incubation (text: 24h), absorption 540 nm, 1% SDS = maximum lysis. The procedure:
Figure 6 Hemolysis and lymphotoxicity assays (A) Hemolytic activity of HDPs was determined by hemoglobin release from whole blood cells after 120 min incubation. Negative controls were left untreated whereas positive controls (=maximum lysis) were treated with 1% SDS. Hemolytic activity was quantified as described in the material and methods section. (B) PBLs were incubated in the presence of increasing HDP concentrations for a period of 24 hours. Viability was analyzed using Calcein-AM and quantified in comparison to untreated controls, which were set to be =1. […] Experiments were performed in triplicates. Values are given as the mean x-fold increase ± SD.
Hemolytic activity of HDPs was determined by hemoglobin release from whole blood cells after 120 min incubation. Briefly, whole blood of healthy donors (n=6) was seeded in 96-well plates and supplemented with HDPs at given concentrations (ranging from: 0.25 μM – 12.5 μM). Negative controls were left untreated and positive controls (=maximum lysis) were treated with 1% SDS. Following the incubation period, cell-free supernatants were transferred into a new 96-well plate and absorption was measured on a plate reader at 540 nm (reference wave length: 690 nm). Hemolytic activity was quantified according to the following formula: % hemolysis=((OD540nm sample−OD540nm buffer)/OD540nm max−OD540nm buffer)*100

A short description of data set [3]: FRET spectroscopy probe dilution assay, membrane intercalation. In kind it is binding. Particulars: NBD-PE/rhodamine-PE, peptide 0.2-0.8 μM, 20 mM HEPES 150 mM NaCl pH 7.4, 37°C. The method, then: FRET spectroscopy served as a sensitive tool to detect lipid dependence of the membrane interaction of antimicrobial peptides. For this, all peptides were added to liposomes consisting of zwitterionic PC alone, of a mixture of PC and of negatively charged PS, as well as of pure PS (Figure 1). All lipid vesicles were doped with donor and acceptor dyes, peptides were added, and the emission intensities of both dyes were monitored over time. An increase of the fluorescence intensity of the donor (IDonor) and a simultaneous decrease of the fluorescence intensity of the acceptor dye (IAcceptor), i.e. a reduced FRET efficacy, indicated an increase in the overall mean distance between labeled phospholipids, and corresponded to an insertion of peptides into the lipid bilayer. For clarity, the IDonor/IAcceptor ratio is shown (Figure 1).
Figure 1 FRET spectroscopy. (A-C) Binding to and insertion of peptide C7A-D21K into phospholipid membranes (A) C7A-D21K was added at time point 50 s to liposomes (10 μM) consisting of pure PC, (B) a 90:10 molar mixture of PC:PS, and (C) of pure PS, each doubly doped with the fluorescently labeled FRET pair NBD-PE (donor) and rhodamine-PE (acceptor). Intercalation was monitored by measuring donor and acceptor fluorescence emission intensities. For better visualization only the quotient (IDonor/IAcceptor) is shown. Addition of the peptide solvent alone had no effect (dotted grey line). Peptide concentrations used: 0.2 μM (dotted black line, only in C), 0.4 μM (solid grey line, only in C), and 0.8 μM (solid black line). (D-F) Binding to and insertion of peptides at different concentrations into phospholipid membranes. (A) Peptides were added to liposomes consisting of pure PC, (B) a 90:10 molar mixture of PC:PS, and (C) of pure PS, each doubly doped with the fluorescently labeled phospholipid FRET pair NBD-PE (donor) and rhodamine-PE (acceptor). Intercalation was monitored by measuring donor and acceptor fluorescence intensities. The relative increase of the IDonor/IAcceptor ratio 250 s after peptide addition is shown (Increase of IDonor/IAcceptor (%) = (IDonor/IAcceptor (peptide) - IDonor/IAcceptor (control))*100). Peptide concentrations used: 0.2 μM (open bars), 0.4 μM (grey bars), and 0.8 μM (black bars).
Intercalation of peptides into liposome membranes was determined by FRET spectroscopy applied as a probe dilution assay. Liposomes were prepared by dissolving appropriate lipid mixtures (pure PC, a 90:10 molar mixture of PC:PS, as well as pure PS, each doped with 1% of the donor dye NBD-PE and 1% of the acceptor dye rhodamine-PE) in chloroform and drying them under a gentle stream of nitrogen. The resulting lipid film was dispersed in 20 mM HEPES, 150 mM NaCl, pH 7.4, sonicated for 30 min and subjected to 3-4 temperature cycles from 4 to 60°C with an incubation period of 30 min at each step. Lipid dispersions were stored at 4°C overnight before use. For the assay, donor fluorescence (NBD) was excited at 470 nm, and donor (NBD, ID at 531 nm) as well as acceptor (rhodamine, IA at 593 nm) emission intensities were monitored over time. An increase of the ratio of the donor fluorescence intensity to that of the acceptor fluorescence intensity (IDonor/I^Acceptor) was interpreted as a membrane intercalation event. This ratio depends on the Förster efficiency, therefore a rising value means that the mean distance separation of donor and acceptor dyes is raising. The assay was performed at 37°C.

Data set [4] has as its system HROC24 cells. Nature of the data set: Apoptosis/necrosis assay, YO-PRO-1/PI flow cytometry. In kind it is cell-based, human. The procedure:
as §1, §2

Data set [5] deals with HROC24 cells. Nature of the data set: Calcein-AM cell viability staining, 24h. The settings on record: HROC24, 24h, 0.25-12.5 μM. In kind it is cell-based, human. The method, then: (§3) Figure 4 HDP-mediated cytotoxicity towards tumor cells Quantitative analysis of direct cytotoxicity towards tumor cells following a 24h incubation period with increasing HDP concentrations. Viability was assessed using Calcein-AM staining. Remaining viable tumor cells were quantified in comparison to untreated controls, which were set to be =1. […] Values are given as the mean x-fold increase ± SD. *p<0.05 vs. NK11; **p<0.01 vs. NK11.
(§4) This assay is based on Calcein-acetoxymethylester (Calcein-AM; Invitrogen, Darmstadt, Germany) staining to detect viable cells within a culture. Tumor and normal (PBL) cells (1-2 × 10^4 cells/well in triplicates) were seeded in 96-well plates and incubated overnight. Thereafter, peptides were added in increasing concentrations (ranging from 0.25 μM – 12.5 μM). Untreated cells served as living cell control. Medium was removed after 1h or 24h, respectively. Calcein-AM ([…]) was added and incubated for 30 min (37°C, 5% CO2). Analysis was performed on a fluorescence multi-well plate reader (Tecan Infinite® M200, Crailsheim, Germany) at an excitation wavelength of 485 nm (emission 535 nm). For estimation of cell viability, the relative fluorescence intensities of Calcein-AM-stained non-treated cells (=live control) were set to be 1, and fluorescence intensities of samples were calculated. Data of at least three independent experiments each performed in […] are given.

In the next data set the test system is HCT116 cells. Kind of data set: Calcein-AM cell viability staining, 24h. The format is cell-based, human. Particulars: HCT116, 24h, 0.25-12.5 μM. The method, then: as §3, §4

Take `CC[C@H](C)[C@H](NC(=O)CN)C(=O)NCC(=O)N[C@@H](C)C(=O)N[C@H](C(=O)N[C@@H](CC(C)C)C(=O)N[C@@H](CCCCN)C(=O)N[C@H](C(=O)N[C@@H](CC(C)C)C(=O)N[C@H](C(=O)N[C@H](C(=O)NCC(=O)N[C@@H](CC(C)C)C(=O)N1CCC[C@H]1C(=O)N[C@@H](C)C(=O)N[C@@H](CC(C)C)C(=O)N[C@H](C(=O)N[C@@H](CO)C(=O)N[C@@H](Cc1c[nH]c2ccccc12)C(=O)N[C@H](C(=O)N[C@@H](CCCCN)C(=O)N[C@@H](CCCNC(=N)N)C(=O)N[C@@H](CCCCN)C(=O)N[C@@H](CCCNC(=N)N)C(=O)N[C@@H](CCC(N)=O)C(=O)N[C@@H](CCC(N)=O)C(N)=O)[C@@H](C)CC)[C@@H](C)CC)[C@@H](C)O)[C@@H](C)O)C(C)C)C(C)C` [Melittin]: the HSP90 protein expression result in data set [1] is listed as “dose-dependently induced”. This compound had a total killing in the data set with HROC18 cells of 71%. Moreover, the hemolysis result in data set [2] was “below 20%”.

As to “KILRGVAKKIMRTFLRR ILTGKK [Peptide C7A-Δ, C7A shortened by deletion of four amino acid residues]”, the “Membrane intercalation (increase of IDonor/IAcceptor)” value is “slightly impaired” in data set [3] (PC:PS 90:10 liposomes 10 μM) and “pronounced” in data set [3] (pure PS liposomes 10 μM). Further, the “Levels of viable HROC24 cells” value in the data set on HROC24 cells [4] (24h, higher concentrations) was determined as 17%. Further, in the data set with HROC24 cells [4] (HROC24, 24h), the “Tumor killing compared with Melittin” value is listed as “as effective in tumor killing as Melittin”. In addition, in the data set with HROC18 cells, the total killing result is “up to 60%”. The “Lytic activity towards tumor cells” value with HROC24 cells [5] and with HCT116 cells was “as effective as the reference compound Mellitin” each time.
